Measurements: PubChem BioAssay AID330 (DTP/NCI, 2004)
“And” between values parts separate entries of the source, which are not always exact repeats. Identical values can stand only once. Toxic doses and inconclusive results are not listed.

Tested on: P388 leukemia ip, CD2F1 mice, survival T/C
Experiment: NCI In Vivo Anticancer Drug Screen. Data for tumor model P388 Leukemia (intraperitoneal) in CD2F1 (CDF1) mice
Conditions: endpoint: median survival time, higher = longer survival
In short: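 Mice carrying the transplanted tumor received test compound or vehicle. Survival was recorded in each group, and the value is the treated-group measurement divided by that of the vehicle-treated control group.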

[1] = dose: 6.25 mg/kg/injection, schedule: Q01DX009 (ip), vehicle: saline
[2] = dose: 12.5 mg/kg/injection, schedule: Q01DX009 (ip), vehicle: saline
[3] = dose: 25.0 mg/kg/injection, schedule: Q01DX009 (ip), vehicle: saline
[4] = dose: 50.0 mg/kg/injection, schedule: Q01DX009 (ip), vehicle: saline
[5] = dose: 100.0 mg/kg/injection, schedule: Q01DX009 (ip), vehicle: saline
[6] = dose: 50.0 mg/kg/injection, schedule: Q01DX009 (ip), vehicle: Klucel (hydroxypropylcellulose) (HPC)
[7] = dose: 100.0 mg/kg/injection, schedule: Q01DX009 (ip), vehicle: Klucel (hydroxypropylcellulose) (HPC)
[8] = dose: 200.0 mg/kg/injection, schedule: Q01DX009 (ip), vehicle: Klucel (hydroxypropylcellulose) (HPC)
[9] = dose: 50.0 mg/kg/injection, schedule: Q01DX005 (ip), vehicle: Klucel (hydroxypropylcellulose) (HPC)
[10] = dose: 100.0 mg/kg/injection, schedule: Q01DX005 (ip), vehicle: Klucel (hydroxypropylcellulose) (HPC)
[11] = dose: 200.0 mg/kg/injection, schedule: Q01DX005 (ip), vehicle: Klucel (hydroxypropylcellulose) (HPC)
[12] = dose: 60.0 mg/kg/injection, schedule: Q01DX005 (ip), vehicle: saline with Tween-80
[13] = dose: 120.0 mg/kg/injection, schedule: Q01DX005 (ip), vehicle: saline with Tween-80
[14] = dose: 240.0 mg/kg/injection, schedule: Q01DX005 (ip), vehicle: saline with Tween-80
[15] = dose: 100.0 mg/kg/injection, schedule: Q01DX009 (ip), vehicle: saline with Tween-80
[16] = dose: 200.0 mg/kg/injection, schedule: Q01DX009 (ip), vehicle: saline with Tween-80
[17] = dose: 400.0 mg/kg/injection, schedule: Q01DX009 (ip), vehicle: saline with Tween-80
[18] = dose: 50.0 mg/kg/injection, schedule: Q04DX003 (ip), vehicle: saline
[19] = dose: 100.0 mg/kg/injection, schedule: Q04DX003 (ip), vehicle: saline
[20] = dose: 50.0 mg/kg/injection, schedule: Q01DX005 (ip), vehicle: saline with Tween-80
[21] = dose: 100.0 mg/kg/injection, schedule: Q01DX005 (ip), vehicle: saline with Tween-80
[22] = dose: 200.0 mg/kg/injection, schedule: Q01DX005 (ip), vehicle: saline with Tween-80
[23] = dose: 50.0 mg/kg/injection, schedule: Q01DX009 (ip), vehicle: saline with Tween-80

## CC(=O)/C(Cl)=N\O
dose: 3.12 mg/kg/injection, schedule: Q01DX005 (ip), vehicle: saline
  T/C: 100 % of control
dose: 6.25 mg/kg/injection, schedule: Q01DX005 (ip), vehicle: saline
  T/C: 107 % of control
dose: 12.5 mg/kg/injection, schedule: Q01DX005 (ip), vehicle: saline
  T/C: 109 % of control

## CN(C)c1cc(O)c(-n2c3cc(=O)c(N(C)C)cc-3nc3ccccc32)cc1O
dose: 3.12 mg/kg/injection, schedule: Q01DX009 (ip), vehicle: saline
  T/C: 100 % of control
dose: 6.25 mg/kg/injection, schedule: Q01DX009 (ip), vehicle: saline with Tween-80
  T/C: 93 % of control
[1]
  T/C: 96 % of control
dose: 12.5 mg/kg/injection, schedule: Q01DX009 (ip), vehicle: saline with Tween-80
  T/C: 90 % of control
[2]
  T/C: 100 % of control
dose: 25.0 mg/kg/injection, schedule: Q01DX009 (ip), vehicle: saline with Tween-80
  T/C: 91 % of control
[3]
  T/C: 115 % of control
[4]
  T/C: 120 % of control
[5]
  T/C: 90 % of control

## CC(=O)CC(c1ccc(Cl)cc1)C(C#N)c1ccccc1 (stereo unspecified)
[6]
  T/C: 89 % of control
[7]
  T/C: 91 % of control
[8]
  T/C: 86 % of control

## CCCn1c(C)nc2c(cnn2C)c1=O
[9]
  T/C: 101 % of control
[10]
  T/C: 104 % of control
[11]
  T/C: 111 % of control

## Cc1cc(Cl)cc2c1OCOC2
dose: 50.0 mg/kg/injection, schedule: Q01DX009 (ip), vehicle: acetone
  T/C: 101 % of control
dose: 100.0 mg/kg/injection, schedule: Q01DX009 (ip), vehicle: acetone
  T/C: 102 % of control

## CCCCCCCCCCCCCCCCc1c(C(=O)OC)nc(N)[nH]c1=O
dose: 3.75 mg/kg/injection, schedule: Q01DX005 (ip), vehicle: saline with Tween-80
  T/C: 99 % of control
dose: 7.5 mg/kg/injection, schedule: Q01DX005 (ip), vehicle: saline with Tween-80
  T/C: 100 % of control
dose: 15.0 mg/kg/injection, schedule: Q01DX005 (ip), vehicle: saline with Tween-80
  T/C: 103 % of control

## O=C(O)C1C(C(=O)O)C2(Cl)C(Cl)=C(Cl)C1(Cl)C2(Cl)Cl.[Mn] (stereo unspecified)
dose: 50.0 mg/kg/injection, schedule: Q04DX003 (ip), vehicle: saline sonified
  T/C: 95 % of control
dose: 100.0 mg/kg/injection, schedule: Q04DX003 (ip), vehicle: saline sonified
  T/C: 91 % of control

## CCC(=N\N=C(N)N)/C(CC)=N/N=C(N)N
[12]
  T/C: 101 % of control
[13]
  T/C: 97 % of control

## CCC(=O)Oc1ccccc1C
dose: 12.5 mg/kg/injection, schedule: Q04DX003 (ip), vehicle: saline with Tween-80
  T/C: 103 % of control
dose: 25.0 mg/kg/injection, schedule: Q04DX003 (ip), vehicle: saline with Tween-80
  T/C: 105 % of control
dose: 50.0 mg/kg/injection, schedule: Q04DX003 (ip), vehicle: saline with Tween-80
  T/C: 103 % of control
dose: 100.0 mg/kg/injection, schedule: Q04DX003 (ip), vehicle: saline with Tween-80
  T/C: 103 % of control

## N#Cc1cn(C2OC(CO)C(O)C2O)c2ncnc(Cl)c12 (stereo unspecified)
[12]
  T/C: 151 % of control and 174 % of control
[13]
  T/C: 111 % of control

## S=c1nc(Oc2ccc(-c3ccccc3)cc2)[nH]c(=S)[nH]1
[12]
  T/C: 87 % of control
[13]
  T/C: 92 % of control
[14]
  T/C: 97 % of control

## CSc1ccccc1P(c1ccccc1)c1ccccc1
[6]
  T/C: 109 % of control
[7]
  T/C: 115 % of control
[8]
  T/C: 105 % of control

## O=C1c2c(O)cc(O)cc2OC(c2ccc(O)cc2)C1O (stereo unspecified)
dose: 9.75 mg/kg/injection, schedule: Q01DX009 (ip), vehicle: saline
  T/C: 100 % of control
dose: 19.5 mg/kg/injection, schedule: Q01DX009 (ip), vehicle: saline
  T/C: 101 % of control
dose: 39.0 mg/kg/injection, schedule: Q01DX009 (ip), vehicle: saline
  T/C: 102 % of control

## C/C(=N\N)C1C(=O)c2ccccc2C1=O
[1]
  T/C: 100 % of control
[2]
  T/C: 105 % of control
[3]
  T/C: 101 % of control and 86 % of control
[4]
  T/C: 98 % of control

## Cc1ccc(S(=O)(=O)NC(=O)c2ccccc2)cc1
[15]
  T/C: 100 % of control
[16]
  T/C: 100 % of control
[17]
  T/C: 91 % of control

## Nc1nnc(Cc2ccccc2)n1N
dose: 15.0 mg/kg/injection, schedule: Q01DX005 (ip), vehicle: saline
  T/C: 100 % of control
dose: 30.0 mg/kg/injection, schedule: Q01DX005 (ip), vehicle: saline
  T/C: 101 % of control
[12]
  T/C: 98 % of control
dose: 60.0 mg/kg/injection, schedule: Q01DX005 (ip), vehicle: saline
  T/C: 100 % of control and 117 % of control
[13]
  T/C: 100 % of control
dose: 120.0 mg/kg/injection, schedule: Q01DX005 (ip), vehicle: saline
  T/C: 116 % of control
[14]
  T/C: 94 % of control

## CC(=O)OCC1OC(n2cc(CBr)nn2)C(OC(C)=O)C(OC(C)=O)C1OC(C)=O (stereo unspecified)
dose: 6.25 mg/kg/injection, schedule: Q01DX009 (ip), vehicle: distilled water + Tween-80
  T/C: 102 % of control and 94 % of control
[1]
  T/C: 93 % of control
dose: 12.5 mg/kg/injection, schedule: Q01DX009 (ip), vehicle: distilled water + Tween-80
  T/C: 106 % of control and 115 % of control
dose: 25.0 mg/kg/injection, schedule: Q01DX009 (ip), vehicle: distilled water + Tween-80
  T/C: 115 % of control
dose: 50.0 mg/kg/injection, schedule: Q01DX009 (ip), vehicle: distilled water + Tween-80
  T/C: 118 % of control
[4]
  T/C: 163 % of control
[18]
  T/C: 101 % of control
dose: 100.0 mg/kg/injection, schedule: Q01DX009 (ip), vehicle: distilled water + Tween-80
  T/C: 90 % of control
[19]
  T/C: 99 % of control

## CN(C)P(=O)(N(C)C)N1CCC1
[4]
  T/C: 104 % of control
[5]
  T/C: 112 % of control

## Cc1cc(=O)n(-c2ccc(S(=O)(=O)N=C(N)N)cc2)c(C)c1C(=O)O
[20]
  T/C: 102 % of control
[21]
  T/C: 106 % of control
[22]
  T/C: 103 % of control

## O=C1C(C(=Nc2cccc(Br)c2)c2ccccc2)=C(O)c2ccccc21
dose: 25.0 mg/kg/injection, schedule: Q04DX002 (ip), vehicle: saline with Tween-80
  T/C: 96 % of control
dose: 50.0 mg/kg/injection, schedule: Q04DX002 (ip), vehicle: saline with Tween-80
  T/C: 100 % of control
dose: 100.0 mg/kg/injection, schedule: Q04DX002 (ip), vehicle: saline with Tween-80
  T/C: 99 % of control

## Cc1c(Cl)cccc1NC(=O)c1cccc([N+](=O)[O-])c1O
[23]
  T/C: 102 % of control
[15]
  T/C: 93 % of control

## CCOC1(OCC)C(=O)N(c2ccc(Cl)c(Cl)c2)C(=O)N1c1ccc(Cl)c(Cl)c1
[19]
  T/C: 95 % of control
dose: 200.0 mg/kg/injection, schedule: Q04DX003 (ip), vehicle: saline
  T/C: 92 % of control
dose: 400.0 mg/kg/injection, schedule: Q04DX003 (ip), vehicle: saline
  T/C: 89 % of control

## CC[n+]1ccc2c(C)c3[nH]c4ccc(O)cc4c3c(C)c2c1
dose: 1.56 mg/kg/injection, schedule: Q04DX003 (ip), vehicle: saline
  T/C: 165 % of control
dose: 3.12 mg/kg/injection, schedule: Q04DX003 (ip), vehicle: saline
  T/C: 192 % of control
dose: 6.25 mg/kg/injection, schedule: Q04DX003 (ip), vehicle: saline
  T/C: 171 % of control and 223 % of control
dose: 12.5 mg/kg/injection, schedule: Q04DX003 (ip), vehicle: saline
  T/C: 103 % of control and 90 % of control
dose: 25.0 mg/kg/injection, schedule: Q04DX003 (ip), vehicle: saline
  T/C: 90 % of control
[18]
  T/C: 90 % of control

## NP(=O)(Oc1c2occc2cc2ccc(=O)oc12)N(CCCl)CCCl (stereo unspecified)
[20]
  T/C: 111 % of control
[21]
  T/C: 99 % of control
[22]
  T/C: 114 % of control

## O=[N+]([O-])c1ccc(C(Nc2nncs2)Nc2nncs2)cc1
[9]
  T/C: 100 % of control
[10]
  T/C: 103 % of control
[11]
  T/C: 119 % of control

## CC1(C)COC2(CC3(C)CC(=O)CC3(C)C2)OC1 (stereo unspecified)
[23]
  T/C: 105 % of control
[15]
  T/C: 90 % of control
[16]
  T/C: 102 % of control

## CC1CC(O)C2C1CC1CCC2(C)OC1(C)C (stereo unspecified)
[15]
  T/C: 105 % of control
[16]
  T/C: 105 % of control
[17]
  T/C: 100 % of control
